Source: patent US11673878B2, “Benzazepine derivatives” (OTSUKA PHARMACEUTICAL CO., LTD., priority 2017, dated 2023)

Assays:
[1] = Pharmacokinetics study in mice, single oral dose; type: in vivo; settings: mouse; male ICR mice, single-dose oral administration of 30 mg/kg, plasma
Protocol: A pharmacokinetics (PK) study was performed using male ICR mice to compare the oral absorption properties of the present compounds with tolvaptan. A test compound was suspended in a 1% hydroxypropyl methylcellulose (HPMC) solution to be adjusted to the concentration of 4.5 mg/mL. The present compounds were used as the forms obtained in the above examples (including the amorphous form) for a test compound, or used after spray drying, if needed.
Male ICR mice (7-week old) were freely fed food and water and weighed on an electronic scale. Then, a test compound was orally administered at the dose of 30 mg/kg […]. After the oral administration, blood was collected from the abdominal vena cava under isoflurane anesthesia using a 1 mL heparinized syringe with a 26 G injection needle. Blood was separated by centrifugation at 4° C., 3000 rpm for 10 minutes to give plasma in a supernatant. The plasma concentration of a test compound was measured by LC-MS/MS.
The following PK parameters were calculated using the mean plasma concentrations of unchanged substances obtained from two animals at each time point.
Cmax: Maximum plasma concentration (μg/mL)
tmax: Time-to-maximum plasma concentration (h)
AUCinf: Area under the plasma concentration-time curve from administration to infinite time (μg h/mL)

[2] = target: T1, rat vasopressin V1a receptor (Rattus norvegicus, UniProt P30560); assay: Binding inhibition test for rat V1a receptor (3H-AVP, rat hepatic membrane); settings: inhibition of 3H-AVP binding, rat hepatic membrane V1a receptor fractions, 4° C., 2 hours; read-out: Binding affinity rV1a (IC50)
T1 construct: V1a receptor fractions derived from rat hepatic membrane; from tissue; host or cells: rat liver (hepatic membrane)
Protocol: (§1) Various compounds were studied in binding affinities for vasopressin receptors with an indicator of binding inhibition of rat vasopressin V1a receptor and vasopressin V2 receptor of ^3H-arginine vasopressin (AVP) (NET800, available from PerkinElmer Inc., Life Sciences).
(1) Binding Inhibition Test for Rat V1a Receptor (rV1aR)
50 μg of V1a receptor fractions derived from rat hepatic membrane were diluted with a reaction solution (100 mM Tris-HCl (pH 8.0), 0.1% BSA, 5 mM MgCl2, 1 mM EDTA) and added to each well of a 96-well plate. A compound was added to each well in various concentrations (0.3 nM to 100 nM), and ^3H-AVP was added thereto in the range of 1 nM to 3 nM. Reactions were carried out at 4° C. for 2 hours on the plate. Via receptor fractions were collected with a 96-well glass filter (Unifilter GF/B) after the reactions and washed with a washing solution (10 mM Tris-HCl (pH 8.0), 5 mM MgCl2, 1 mM EDTA) three times, and then the radioactivity of ^3H-AVP was measured with a scintillation counter.
(§2) ^3H-AVP binding rate in the presence of a compound was calculated by the following equation. Binding rate (%)=(B−NSB)/(TB−NSB)×100 (B: Binding amount of ^3H-AVP in the presence of each compound, NSB: Binding amount of ^3H-AVP in the presence of 1 μM of unlabeled AVP, TB: Binding amount of ^3H-AVP in the absence of 1 μM of unlabeled AVP)

[3] = target: T2, rat vasopressin V2 receptor (Rattus norvegicus, UniProt Q00788); assay: Binding inhibition test for rat V2 receptor (3H-AVP, rV2R-CHO cells); settings: inhibition of 3H-AVP binding, 4° C., 2 hours, read-out: Binding affinity rV2 (IC50)
T2 construct: expressed in transfected cells; host or cells: CHO cells (rV2R-CHO)
Protocol: as §1
(2) Binding Inhibition Test for Rat V2 Receptor (rV2R)
Rat V2 receptor-expressed CHO cells (rV2R—CHO) were incubated on 10% FBS-containing DMEM/F12 in a 24-well plate, and each cell was washed with D-PBS twice. A reaction solution (D-PBS containing 0.1% BSA and 0.05% sodium azide) comprising a compound in various concentrations (0.3 nM to 100 nM) was added to each well, and a certain amount of ^3H-AVP was added thereto (100-fold dilution). Reactions were carried out at 4° C. for 2 hours on the plate. Then, each well was washed with D-PBS twice and 0.1N NaOH was added to each well. The cells were collected, and the radioactivity of ^3H-AVP was measured with a scintillation counter.
as §2

[4] = Metabolic stability test in human liver microsomes; type: in vitro ADME; settings: pH 7.4; human liver microsomes 1 mg/mL, test compound 1 μmol/L, NADPH and NADH, 37° C., n = 4; read-out: CLint (μL/min/mg) mean ± SD
Protocol: Reaction System and Incubation
According to methods of Obach and Jones, et al. (methods described in R. S. Obach, Drug Metab. Dispos. 1999 (27): 1350-1359 and H. Jones and J. B. Houston, Drug Metab. Dispos. 2004 (32): 973-982), the reaction system shown below was prepared and metabolic stabilities of test compounds (the present compounds and, tolvaptan) were evaluated using the reaction system shown below. Human liver microsomes purchased from Corning Inc. were used. Test compounds were dissolved in DMSO at the concentration of 10 mmol/L and then diluted with acetonitrile to prepare a 100 μmol/L solution for use in the test. The 100 μmol/L solutions were used in the experiment.
Human liver microsome 1 mg/mL
Co-factor (NADPH and NADH) 1 mmol/L each
Magnesium chloride 5 mmol/L
100 mmol/L Potassium phosphate buffer (pH 7.4)
The reaction mixture without co-factors was pre-incubated at 37° C. for 5 minutes, and then the reaction was initiated by the addition of the co-factors. The mixture was incubated for 0, 5, 10, 20, 30, and 60 minutes after the addition of the co-factors. An aliquot of the reaction mixture was removed and added to a methanol solution containing an internal standard (IS) and mixed to terminate the reaction at each predetermined time.
After the reaction was terminated, the mixture was separated by centrifugation and the supernatant was injected into a liquid chromatograph-tandem mass spectrometer (LC-MS/MS) to measure unchanged substances remained in the reaction system. The mass spectrometer was operated in a positive ion mode of the electrospray ionization (ESI) method. Unchanged substances and the IS were detected by multiple reaction monitoring (MRM) transitions using selected precursor and product ions set.
The remaining ratios of test compounds were calculated by the following equation. Remaining ratio=(Peak area ratio of a test compound to IS at t minutes after incubation)÷(Peak area ratio of a test compound to IS at 0 minute)
The slope of X-axis (the incubation time) and Y-axis (logarithm of the remaining ratio) was calculated by a non-linear least square method. Hepatic intrinsic clearance (CLint) was calculated by the following equation. CLint(μL/min/mg)=−(Slope(min^−1))÷1(mg/mL)×1000

T2 sequence (Q00788 whole entry): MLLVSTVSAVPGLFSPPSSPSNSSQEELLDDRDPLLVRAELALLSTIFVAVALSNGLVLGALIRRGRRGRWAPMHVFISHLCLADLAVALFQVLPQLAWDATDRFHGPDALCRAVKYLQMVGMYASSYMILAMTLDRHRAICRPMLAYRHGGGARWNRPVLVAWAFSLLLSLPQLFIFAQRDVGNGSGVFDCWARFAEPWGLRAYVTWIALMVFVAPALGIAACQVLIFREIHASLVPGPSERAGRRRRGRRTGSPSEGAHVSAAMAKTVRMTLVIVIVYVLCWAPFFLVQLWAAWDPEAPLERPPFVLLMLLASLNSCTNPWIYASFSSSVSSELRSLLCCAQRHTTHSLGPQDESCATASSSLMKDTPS
T1 sequence (P30560 whole entry): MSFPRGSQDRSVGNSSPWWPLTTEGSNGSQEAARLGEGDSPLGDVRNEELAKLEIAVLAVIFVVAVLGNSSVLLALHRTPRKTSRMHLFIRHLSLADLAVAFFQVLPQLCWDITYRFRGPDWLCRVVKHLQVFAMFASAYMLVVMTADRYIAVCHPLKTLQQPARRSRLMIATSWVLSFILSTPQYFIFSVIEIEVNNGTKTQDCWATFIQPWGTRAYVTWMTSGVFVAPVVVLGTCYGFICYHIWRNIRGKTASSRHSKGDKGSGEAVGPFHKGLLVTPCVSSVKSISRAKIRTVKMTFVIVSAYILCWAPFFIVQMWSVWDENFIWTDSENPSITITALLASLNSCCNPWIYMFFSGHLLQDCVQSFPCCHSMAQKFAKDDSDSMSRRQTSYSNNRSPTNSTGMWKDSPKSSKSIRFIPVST

Row | Compound | AUC(0-inf) [1] [ng·h/mL] | Cmax [1] [ng/mL] | Tmax [1] [h] | IC50 [2] [nM] | IC50 [3] [nM] | microsomal CLint at 1 μmol/L [4] [µL/min/mg]
1 | COc1cc(C(=O)N2CCC(F)(F)[C@](O)(CO)c3cc(Cl)ccc32)ccc1NC(=O)c1ccc(F)cc1Cl [Example 58, 2-chloro-N-{4-[(5R)-7-chloro-4,4-difluoro-5-hydroxy-5-(hydroxymethyl)-2,3,4,5-tetrahydro-1H-1-benzazepine-1-carbonyl]-2-methoxyphenyl}-4-fluorobenzamide] | 44900 | 5890 | 1 | 9.3 | 1.3 | 1.81 ± 2.1
2 | O=C1c2cc(F)ccc2CCN1c1ccc(C(=O)N2CCC(F)(F)[C@](O)(CO)c3cc(Cl)ccc32)cc1 [Example 187, 2-{4-[(5R)-7-chloro-4,4-difluoro-5-hydroxy-5-(hydroxymethyl)-2,3,4,5-tetrahydro-1H-1-benzazepine-1-carbonyl]phenyl}-7-fluoro-1,2,3,4-tetrahydroisoquinolin-1-one] | 5440 | 2040 | 1 | 2.6 | 0.4 | < 4
3 | O=C(Nc1ccc(C(=O)N2CCC(F)(F)[C@](O)(CO)c3cc(Cl)ccc32)cc1)c1cc(F)ccc1-c1ccccc1 [Example 153, N-{4-[(5R)-7-chloro-4,4-difluoro-5-hydroxy-5-(hydroxymethyl)-2,3,4,5-tetrahydro-1H-1-benzazepine-1-carbonyl]phenyl}-4-fluoro-[1,1′-biphenyl]-2-carboxamide] | 34000 | 5480 | 1 | 3.6 | 4.5 | 1.91 ± 2.22
4 | O=C(Nc1ccc(C(=O)N2CCC(F)(F)[C@](O)(CO)c3cc(Cl)ccc32)cn1)c1cc(F)ccc1-c1ccccc1F [Example 165, N-{5-[(5R)-7-chloro-4,4-difluoro-5-hydroxy-5-(hydroxymethyl)-2,3,4,5-tetrahydro-1H-1-benzazepine-1-carbonyl]pyridin-2-yl}-2′,4-difluoro-[1,1′-biphenyl]-2-carboxamide] | 41500 | 7720 | 1 | 1.7 | 3.4 | 3.61 ± 2.43
5 | O=C(Nc1ccc(C(=O)N2CCC(F)(F)[C@](O)(CO)c3cc(Cl)ccc32)cn1)c1cc(F)ccc1-c1ccccc1 [Example 96, N-{5-[(5R)-7-chloro-4,4-difluoro-5-hydroxy-5-(hydroxymethyl)-2,3,4,5-tetrahydro-1H-1-benzazepine-1-carbonyl]pyridin-2-yl}-4-fluoro-[1,1′-biphenyl]-2-carboxamide] | 43000 | 5550 | 4 | 2 | 5 | 0.953 ± 1.91
6 | O=C(Nc1ccc(C(=O)N2CCC(F)(F)[C@](O)(CO)c3cc(Cl)ccc32)cc1F)c1cc(F)ccc1C(F)(F)F [Example 132] | 56500 | 3590 | 4 | 5.2 | 2.3 | < 4
7 | O=C(Nc1ccc(C(=O)N2CCC(F)(F)[C@](O)(CO)c3cc(Cl)ccc32)cn1)c1cc(F)c(Cl)cc1Cl [Example 52, 2,4-dichloro-N-{5-[(5R)-7-chloro-4,4-difluoro-5-hydroxy-5-(hydroxymethyl)-2,3,4,5-tetrahydro-1H-1-benzazepine-1-carbonyl]pyridin-2-yl}-5-fluorobenzamide] | 62700 | 5570 | 1 | 8.8 | 3 | < 4
8 | O=C(Nc1ccc(C(=O)N2CCC(F)(F)[C@](O)(CO)c3cc(Cl)ccc32)cn1)c1cc(F)ccc1Cl [Example 15, 2-chloro-N-{5-[(5R)-7-chloro-4,4-difluoro-5-hydroxy-5-(hydroxymethyl)-2,3,4,5-tetrahydro-1H-1-benzazepine-1-carbonyl]pyridin-2-yl}-5-fluorobenzamide] | 63100 | 6180 | 1 | 2.9 | 1 | < 4
9 | O=C(Nc1ccc(C(=O)N2CCC(F)(F)[C@](O)(CO)c3cc(Cl)ccc32)cc1F)c1cc(F)ccc1-c1ccccc1F [Example 168, N-{4-[(5R)-7-chloro-4,4-difluoro-5-hydroxy-5-(hydroxymethyl)-2,3,4,5-tetrahydro-1H-1-benzazepine-1-carbonyl]-2-fluorophenyl}-2′,4-difluoro-[1,1′-biphenyl]-2-carboxamide] | 40900 | 7110 | 1 | 2.2 | 4.7 | 7.48 ± 1.5
